# Conditions: buffer; pH 7.4; 200.0 µM
row,SMILES,solubility kinetic [µg/mL]
1,Cn1c(N)c(C(=O)CN2CCc3ccccc3C2)c(=O)n(C)c1=O,> 49.3
2,CSc1ccc(S(=O)(=O)N2CCC(C(=O)NCc3ccccn3)CC2)cc1,49.9
3,CCCC(=O)Nc1ccc(-c2cn3cccnc3n2)cc1,> 42
4,O=C(Cc1ccc(F)cc1)NCCc1cnc[nH]1,> 37.1
5,COc1ccc(Br)c(C(=O)OCC(=O)NC(=O)NC2CCCC2)c1,19.5
6,Cc1ccc(C(=O)Nc2cccnc2)cc1Cl,35.6
7,COc1ccc2oc(C(=O)NCCC(C)C)c(C)c2c1,1.8
8,O=C(NS(=O)(=O)c1ccc(Cl)s1)c1ccccc1,> 45.3
9,COc1ccc(/C(=N/Nc2ncnc3ccccc23)C(=O)O)cc1,> 48.3
10,O=C(O)c1ccccc1C(=O)N(c1ccccc1)c1ccccc1,46.8
11,CC(=O)Nc1ccc(C(=S)NCC2(N(C)C)CCCCC2)cc1,21.1
12,O=C(O)C1CC=CCC1C(=O)Nc1ccc2c(c1)CCC2 (stereo not drawn),> 42.8
13,Cc1ccc(OCc2ccc(C(=O)N3CCCC3)o2)cc1C,31.8
14,COc1ccc(NC(=O)COC(=O)CCC2CCCC2)c(OC)c1,17.4
15,Cc1ccn2cc(-c3cc4ccccc4oc3=O)nc2c1,3.1
16,O=C(COc1ccccc1)Nc1nc2c(s1)CCCC2,3.7
17,COC(=O)C1=C(N)OC2=C(C(=O)CCC2)C1c1ccccc1OC (stereo not drawn),14.5
18,Cc1cc(C)c(S(=O)(=O)Nc2ncccc2C)c(C)c1,2.1
19,c1cncc(Nc2c3ccccc3nc3ccccc23)c1,2
20,Cn1c(N2CCCC2)nc2c1c(=O)[nH]c(=O)n2C,> 37.4
21,COc1ccc(C(=O)Nc2cccc(OC(=O)c3ccco3)c2)cc1,3.2
22,O=C(/C=C/c1ccco1)NC(=S)Nc1ccc(C(=O)O)cc1,> 47.4
23,CN(C)c1cccc(C(=O)OCC(=O)NC(=O)NCc2ccccc2)c1,2.6
24,COc1ccc(NC(=O)CCC(=O)c2cc(C)sc2C)cc1,6.3

row,SMILES,solubility kinetic [µg/mL]
1,CC(NC(=O)c1ccc([N+](=O)[O-])cc1Cl)C1CC2CCC1C2 (stereo not drawn),28
2,Cc1ccc(C(=O)c2cc(Br)ccc2N)cc1,2.9
3,O=C(Nc1cccc(S(=O)(=O)N2CCCCC2)c1)C1CC1,> 46.3
4,Cc1csc(NC(=O)c2cc(C)nc3ccccc23)n1,30.7
5,Cn1c(=O)oc2cc(S(=O)(=O)NCc3ccc(C(=O)O)cc3)ccc21,> 54.4
6,O=C(CSc1nc2ncc(Cl)cc2[nH]1)N1CCOCC1,> 46.9
7,COc1ccccc1Cn1c(C(C)C)nc2ccccc21,> 42.1
8,CCOC(=O)c1csc(COc2ccccc2Cl)n1,2.9
9,Cc1cc[n+](CC2OCc3ccccc3CO2)cc1.[Br-],> 50.4
10,Cc1ccc(C(=O)OC(C)CN2CCOCC2)cc1.Cl (stereo not drawn),38.9
11,COc1cccc(C(=O)Nc2ccccc2-c2ccccc2)c1,24
12,COc1ccccc1NC(=O)/C(=C/c1cccs1)NC(=O)c1ccco1,> 55.3
13,COc1ccc(OC)c2nc(-c3ccc4c(c3)OCO4)ccc12,< 0.7
14,CC(=NCC1CCCO1)c1c(O)n(-c2ccccc2C)c(=O)[nH]c1=O (stereo not drawn),> 51.5
15,CS(=O)(=O)N1CCc2cc(C(=O)N3CCCC3)ccc21,> 44.2
16,COc1ccc2c(c1)c(-c1csc(N)n1)c(C)n2C,27.7
17,CCN(CC(=O)NCc1ccncc1)S(=O)(=O)c1ccccc1,> 50
18,Cc1ccc[n+](CC(=O)Nc2nc3ccccc3s2)c1.[Cl-],> 48
19,CN1CCCN(C(=O)COc2ccccc2Br)CC1,> 49.1
20,COCCSc1ccccc1C(=O)Nc1ccccc1C(C)C,48.9
21,Cc1nn(-c2ccc(C(=O)O)cc2)c2c1C(=O)CC(C)(C)C2,> 44.8
22,CN1C(=O)CN=C(c2ccc(Cl)cc2)c2cc(Cl)ccc21,> 47.9
23,CCN(Cc1ccccc1)C(=O)Cc1c[nH]c2ccccc12,33.9
24,O=S(=O)(c1cc(F)ccc1F)N1CCN(c2ncccn2)CC1,46.9
